Experimental data from US20230112484A1, “COMPOSITIONS FOR CROP PROTECTION” (Agrematch Ltd., priority 2020, published 2023).

Columns and labels:
Format in all cases: in vivo
Lolium rigidum [1] = assay: Soil germination (Example 1)
Method: (§1) Compounds were dissolved in DMSO and then in distilled water to get 0.01-2 mg/ml solution with 1% or 2% DMSO. 1% or 2% DMSO solution in water was used as a negative control. As a positive control, 0.1 or 0.2 mg/ml oxyfluorfen (Galigan) solution was used.
(§2) Flowerpots were filled with 30 g of soil, and 4-5 seeds were sowed in each flowerpot. Each treatment contained 3 flowerpots. Each flowerpot was sprayed with 1.5 ml of the dissolved compound. Soil was let dry for about 1 hour at room conditions, and then each flowerpot was sub-irrigated with 40 ml water and incubated under conditions provided below.
(§3) Amaranthus palmeri was incubated at 25° C. for 8 hr in dark, followed by 16 hr at 30° C. in light. Lolium rigidum was incubated at 21° C. for 8 hr in dark, followed by 16 hr at 21° C. in light. Germination was assessed and scored after 4-7 days. Scoring scale: 0—complete germination inhibition, 100—no effect.

Lolium rigidum [2] = assay: Paper germination (Example 1); settings: 0.1 mg/ml
Method: (§4) Compounds were dissolved in DMSO and then in distilled water to get 0.1 or 0.5 mg/ml solution with 0.5% DMSO.
(§5) 0.5% DMSO solution in water was used as a negative control. As a positive control, 0.1 mg/ml oxyfluorfen (Galigan) solution was used.
(§6) A towel paper was placed in each box as bedding for seeds. Each box was soaked with 6 ml of the solutions on its paper. 13 seeds were placed on the wet paper and the box was sealed and incubated under conditions provided bellow.
Lolium rigidum—first 4 days under dark conditions at 21° C. Afterwards, plants were incubated at 21° C. for 8 hr in dark, followed by 16 hr at 21° C. in light.
(§7) Gemination was assessed and scored after 3-7 days. Scoring scale: 0—complete germination inhibition, 100—no effect.

Amaranthus palmeri [3] = assay: Paper germination (Example 1); settings: 0.1 mg/ml
Method: as §4, §5, §6
Amaranthus palmeri—first 2 days under dark conditions. Plants were first incubated at 25° C. for 8 hr, then at 30° C. for 16 hr. Afterwards, plants were incubated at 25° C. for 8 hr in dark, followed by 16 hr incubation at 30° C. in light.
as §7

Amaranthus palmeri [4] = assay: Soil germination (Example 1); settings: for Amaranthus palmeri soil germination: score 0 = complete germination inhibition, 100 = no effect
Method: as §1, §2, §3

Amaranthus palmeri [5] = assay: Residual activity greenhouse assay; settings: seeds sowed three weeks after pre-emergence application
Source text: Residual activity of Compound 1 and Compound 2 was examined in greenhouse assay. Three weeks after pre-emergence application, new Amaranthus palmeri seeds were sowed on the same pots and germination was followed.

Zea mays [6] = assay: Soil germination (Example 3); settings: score 0 = complete germination inhibition, 100 = no effect, after 7 days
Method: (§8) Compounds were dissolved in DMSO and then in distilled water to get 0.1 or 0.5 mg/ml solution with 2% DMSO. 2% DMSO solution in water was used as a negative control. No positive control was used in this assay. Flowerpots were filled with 30 g of soil, each treatment contained three flowerpots. Each flowerpot was sprayed with 1.5 ml of the dissolved compound. Soil was let dry for about 1 hour at room conditions, and then each flowerpot was sub-irrigated with 40 ml water and incubated at controlled growth chambers, under conditions provided on table 6. Gemination was assessed and scored after 7 days. Scoring scale: 0—complete germination inhibition, 100—no effect. [table]

Echinochloa colonum [7] = assay: Soil germination (Example 3); settings: score 0 = complete germination inhibition, 100 = no effect, after 7 days
Method: as §8

Setaria adhaerens [8] = assay: Soil germination (Example 3); settings: score 0 = complete germination inhibition, 100 = no effect, after 7 days
Method: as §8

Lolium rigidum [9] = assay: Soil germination (Example 3); settings: score 0 = complete germination inhibition, 100 = no effect, after 7 days
Method: as §8

Triticum vulgare [10] = assay: Soil germination (Example 3); settings: score 0 = complete germination inhibition, 100 = no effect, after 7 days
Method: as §8

Amaranthus palmeri [11] = assay: Soil germination (Example 3); settings: score 0 = complete germination inhibition, 100 = no effect, after 7 days
Method: as §8

Abutilon theophrasti [12] = assay: Soil germination (Example 3); settings: score 0 = complete germination inhibition, 100 = no effect, after 7 days
Method: as §8

Zea mays [13] = assay: Foliar experiment (Example 2); settings: score 0 = complete phytotoxic effect, 100 = no effect
Method: (§9) Compounds were dissolved in DMSO and then in distilled water to get 0.1 or 0.5 mg/ml solution with 2% DMSO. Break-Thru surfactant was added to a final concentration of 0.05%. Negative control—an aqueous solution of 2% DMSO and 0.05% Break-Thru. Positive control—2 mg/ml Glyphosate (Roundup). 1.5 ml of each compound solution were sprayed on the foliage of different plants, which were 6-16 days old at the day of the experiment. Each treatment contained 3 pots. Plants were let dry for about 15 minutes at room conditions, and then incubated at controlled growth chambers. Phytotoxicity was assessed and scored 4-10 days after applications. Scoring scale: 0—complete phytotoxic effect, 100—no effect. [table]

Triticum vulgare [14] = assay: Foliar experiment (Example 2); settings: score 0 = complete phytotoxic effect, 100 = no effect
Method: as §9

Brassica napus [15] = assay: Soil germination (Example 3); settings: 0.5 mg/ml; score 0 = complete germination inhibition, 100 = no effect; after 7 days
Method: as §8

Lactuca sativa [16] = assay: Soil germination (Example 3); settings: 0.5 mg/ml; score 0 = complete germination inhibition, 100 = no effect; after 7 days
Method: as §8

Gossypium hirsutum [17] = assay: Soil germination (Example 3); settings: 0.5 mg/ml; score 0 = complete germination inhibition, 100 = no effect; after 7 days
Method: as §8

Solarium nigrum [18] = assay: Soil germination (Example 3); settings: 0.5 mg/ml; score 0 = complete germination inhibition, 100 = no effect; after 7 days
Method: as §8

Sinapis alba [19] = assay: Soil germination (Example 3); settings: 0.5 mg/ml; score 0 = complete germination inhibition, 100 = no effect; after 7 days
Method: as §8

Brassica napus [20] = assay: Foliar experiment (Example 2); settings: 0.5 mg/ml; score 0 = complete phytotoxic effect, 100 = no effect
Method: as §9

Lactuca sativa [21] = assay: Foliar experiment (Example 2); settings: 0.5 mg/ml; score 0 = complete phytotoxic effect, 100 = no effect
Method: as §9

Echinochloa colonum [22] = assay: Foliar experiment (Example 2); settings: 0.5 mg/ml; score 0 = complete phytotoxic effect, 100 = no effect
Method: as §9

Gossypium hirsutum [23] = assay: Foliar experiment (Example 2); settings: 0.5 mg/ml; score 0 = complete phytotoxic effect, 100 = no effect
Method: as §9

Setaria adhaerens [24] = assay: Foliar experiment (Example 2); settings: 0.5 mg/ml; score 0 = complete phytotoxic effect, 100 = no effect
Method: as §9

Solarium nigrum [25] = assay: Foliar experiment (Example 2); settings: 0.5 mg/ml; score 0 = complete phytotoxic effect, 100 = no effect
Method: as §9

Lolium rigidum [26] = assay: Foliar experiment (Example 2); settings: 0.5 mg/ml; score 0 = complete phytotoxic effect, 100 = no effect
Method: as §9

Phalaris brachystachys = assay: Foliar experiment (Example 2); settings: 0.5 mg/ml; score 0 = complete phytotoxic effect, 100 = no effect
Method: as §9

Amaranthus palmeri [27] = assay: Foliar experiment (Example 2); settings: 0.5 mg/ml; score 0 = complete phytotoxic effect, 100 = no effect; 4-10 days after application
Method: as §9

Sinapis alba [28] = assay: Foliar experiment (Example 2); settings: 0.5 mg/ml; score 0 = complete phytotoxic effect, 100 = no effect
Method: as §9

Abutilon theophrasti [29] = assay: Foliar experiment (Example 2); settings: 0.5 mg/ml; score 0 = complete phytotoxic effect, 100 = no effect
Method: as §9

a variety of plants = assay: Foliar experiment (Example 2), overall statement; settings: as shown in Table 5
Method: as §9

Structure (SMILES): CC(Cl)/C=C/C(=O)N(CC(C)C)c1ccc(Cl)cc1F (stereo not drawn)
- Lolium rigidum soil germination (Lolium rigidum [1]; 1 mg/ml): unable to reduce soil germination
- paper germination reduction of Lolium rigidum (Lolium rigidum [2]): not active
- paper germination reduction of Amaranthus palmeri (Amaranthus palmeri [3]): not active

Structure (SMILES): CC(Cl)/C=C/C(=O)N(Cc1ccc(Cl)nc1)CC(C)C (stereo not drawn) [Compound 2]
- Amaranthus palmeri soil germination (Amaranthus palmeri [4]; 0.01 mg/ml): 60
- Amaranthus palmeri soil germination (Amaranthus palmeri [4]; 0.025 mg/ml): 50
- Amaranthus palmeri soil germination (Amaranthus palmeri [4]; 0.05 mg/ml): 0
- Amaranthus palmeri soil germination (Amaranthus palmeri [4]; 0.1 mg/ml): 0
- Residual activity: germination of newly sowed Amaranthus palmeri seeds (Amaranthus palmeri [5]): no germination was observed
- Herbicidal activity, soil germination, Zea mays (Zea mays [6]; 0.1 mg/ml): 100
- Herbicidal activity, soil germination, Echinochloa colonum (Echinochloa colonum [7]; 0.1 mg/ml): 100
- Herbicidal activity, soil germination, Setaria adhaerens (Setaria adhaerens [8]; 0.1 mg/ml): 80
- Herbicidal activity, soil germination, Lolium rigidum (Lolium rigidum [9]; 0.1 mg/ml): 90
- Herbicidal activity, soil germination, Triticum vulgare (Triticum vulgare [10]; 0.1 mg/ml): 100
- Herbicidal activity, soil germination, Amaranthus palmeri (Amaranthus palmeri [11]; 0.1 mg/ml): 0
- Herbicidal activity, soil germination, Abutilon theophrasti (Abutilon theophrasti [12]; 0.1 mg/ml): 100
- Herbicidal activity, foliar, Zea mays (Zea mays [13]; 0.1 mg/ml): 90
- Herbicidal activity, foliar, Triticum vulgare (Triticum vulgare [14]; 0.1 mg/ml): 90

Structure (SMILES): CC(Cl)/C=C/C(=O)N(Cc1ccc(Cl)s1)CC(C)C (stereo not drawn) [Compound 4]
- Lolium rigidum soil germination (Lolium rigidum [1]; 0.5 mg/ml, score 0 = complete germination inhibition, 100 = no effect): 60
- Lolium rigidum soil germination (Lolium rigidum [1]; 2 mg/ml, score 0 = complete germination inhibition, 100 = no effect): 70
- soil germination of Lolium rigidum, result in words (Lolium rigidum [1]; concentration not given): active
- Amaranthus palmeri soil germination (Amaranthus palmeri [4]; 0.1 mg/ml): 0
- Amaranthus palmeri soil germination (Amaranthus palmeri [4]; 0.25 mg/ml): 0
- Amaranthus palmeri soil germination (Amaranthus palmeri [4]; 0.5 mg/ml): 0
- Amaranthus palmeri soil germination (Amaranthus palmeri [4]; 1 mg/ml): 0
- soil germination of Amaranthus palmeri, result in words (Amaranthus palmeri [4]; concentration not given): active
- Herbicidal activity, soil germination, Brassica napus (Brassica napus [15]): 10
- Herbicidal activity, soil germination, Zea mays (Zea mays [6]; 0.5 mg/ml): 80
- Herbicidal activity, soil germination, Lactuca sativa (Lactuca sativa [16]): 70
- Herbicidal activity, soil germination, Echinochloa colonum (Echinochloa colonum [7]; 0.5 mg/ml): 5
- Herbicidal activity, soil germination, Gossypium hirsutum (Gossypium hirsutum [17]): 90
- Herbicidal activity, soil germination, Setaria adhaerens (Setaria adhaerens [8]; 0.5 mg/ml): 5
- Herbicidal activity, soil germination, Solarium nigrum (Solarium nigrum [18]): 10
- Herbicidal activity, soil germination, Lolium rigidum (Lolium rigidum [9]; 0.5 mg/ml): 60
- Herbicidal activity, soil germination, Triticum vulgare (Triticum vulgare [10]; 0.5 mg/ml): 60
- Herbicidal activity, soil germination, Amaranthus palmeri (Amaranthus palmeri [11]; 0.5 mg/ml): 0
- Herbicidal activity, soil germination, Sinapis alba (Sinapis alba [19]): 30
- Herbicidal activity, soil germination, Abutilon theophrasti (Abutilon theophrasti [12]; 0.5 mg/ml): 10
- Herbicidal activity, foliar, Brassica napus (Brassica napus [20]): 0
- Herbicidal activity, foliar, Zea mays (Zea mays [13]; 0.5 mg/ml): 80
- Herbicidal activity, foliar, Lactuca sativa (Lactuca sativa [21]): 0
- Herbicidal activity, foliar, Echinochloa colonum (Echinochloa colonum [22]): 70
- Herbicidal activity, foliar, Gossypium hirsutum (Gossypium hirsutum [23]): 60
- Herbicidal activity, foliar, Setaria adhaerens (Setaria adhaerens [24]): 5
- Herbicidal activity, foliar, Solarium nigrum (Solarium nigrum [25]): 0
- Herbicidal activity, foliar, Lolium rigidum (Lolium rigidum [26]): 10
- Herbicidal activity, foliar, Triticum vulgare (Triticum vulgare [14]; 0.5 mg/ml): 100
- Herbicidal activity, foliar, Phalaris brachystachys (Phalaris brachystachys): 5
- Herbicidal activity, foliar, Amaranthus palmeri (Amaranthus palmeri [27]): 0
- Herbicidal activity, foliar, Sinapis alba (Sinapis alba [28]): 10
- Herbicidal activity, foliar, Abutilon theophrasti (Abutilon theophrasti [29]): 5
- Herbicidal activity in a variety of plants, foliar, result in words (a variety of plants): solid herbicidal activity
